Assay results taken from ChEMBL document CHEMBL1125405, “Synthesis of alkoxy-substituted diaryl compounds and correlation of ring separation with inhibition of tubulin polymerization: differential enhancement of inhibitory effects under suboptimal polymerization reaction conditions” (J Med Chem, 1992).

Legend:
HL-60 = assay: Cytotoxicity of compound against HL-60 human leukemia cells; type: functional, cell-based
L1210 [1] = assay: Compound was tested for the inhibition of murine L1210 leukemia cells growth by 50%; type: functional, cell-based; conditions: Mus musculus
Tubulin [2] = target: T1, Tubulin (Bos taurus, UniProt Q6B856+Q862L2+Q862F3); assay: Inhibition of glutamate-dependent tubulin polymerization at 30 degrees C(0.25 mM MgCl2); type: functional
Tubulin [3] = target: T1, Tubulin; assay: Concentration required to inhibit the extent of glutamate-dependent tubulin polymerization by 50% at 37 degrees C(1.0 mM MgCl2); type: functional
L1210 [4] = assay: Compound was tested for the inhibition of L1210 leukemia cells growth […]; type: functional, cell-based; conditions: Mus musculus

COc1ccc(Cc2cc(OC)c(OC)c(OC)c2)cc1O
IC50 (HL-60): 100 nM | IC50 (L1210 [1]): 200 nM | IC50 (Tubulin [2]): 2300 nM | IC50 (Tubulin [3]): 7700 nM

COc1ccc(CCCCc2cc(OC)c(OC)c(OC)c2)cc1O
IC50 (Tubulin [2]): 4400 nM | IC50 (Tubulin [3]): 30000 nM

CCOc1cc2c(cc1C(C)c1ccc(OC)cc1)OCO2 (stereo not given)
IC50 (Tubulin [2]): 1800 nM

COc1ccc(CCCCc2cc3c(cc2OC)OCO3)cc1
IC50 (Tubulin [2]): 7500 nM

COc1ccc(CCCc2cc(OC)c(OC)c(OC)c2)cc1O
IC50 (HL-60): 300 nM | IC50 (L1210 [1]): 400 nM | IC50 (Tubulin [2]): 3000 nM | IC50 (Tubulin [3]): 11000 nM

COc1ccc(-c2cc(OC)c(OC)c(OC)c2)cc1O
IC50 (Tubulin [2]): > 40000 nM | IC50 (Tubulin [3]): > 40000 nM

COc1ccc(Cc2cc3c(cc2OC)OCO3)cc1
IC50 (Tubulin [2]): 5400 nM

COc1c(-c2ccc(OC)c(=O)cc2)ccc(C=O)c1C=O
IC50 (Tubulin [2]): 1200 nM | IC50 (Tubulin [3]): 2600 nM

COc1ccc(CCc2cc(OC)c(OC)c(OC)c2)cc1O
IC50 (HL-60): 50 nM | IC50 (L1210 [4]): 70 nM | IC50 (Tubulin [2]): 1600 nM | IC50 (Tubulin [3]): 3500 nM

COc1ccc(/C=C/Cc2cc3c(cc2OC)OCO3)cc1
IC50 (Tubulin [2]): 3900 nM

CCOc1cc2c(cc1C/C=C/c1ccc(OC)cc1)OCO2
IC50 (Tubulin [2]): 1900 nM

CCOc1cc2c(cc1/C=C\c1ccc(OC)cc1)OCO2
IC50 (Tubulin [2]): > 40000 nM

COc1ccc(CCCc2cc3c(cc2OC)OCO3)cc1
IC50 (Tubulin [2]): 3800 nM

COc1ccc(C(C)c2cc3c(cc2OC)OCO3)cc1 (stereo not given)
IC50 (Tubulin [2]): 2500 nM

COc1ccc(CCc2cc3c(cc2OC)OCO3)cc1
IC50 (Tubulin [2]): 8800 nM

CCOc1cc2c(cc1CCc1ccc(OC)cc1)OCO2
IC50 (Tubulin [2]): 3800 nM

CCOc1cc2c(cc1Cc1ccc(OC)cc1)OCO2
IC50 (Tubulin [2]): 2000 nM

CCOc1cc2c(cc1CCCc1ccc(OC)cc1)OCO2
IC50 (Tubulin [2]): 2700 nM
